Experimental data from patent US9663523B2, “BET protein-inhibiting 5-aryltriazoleazepines” (BAYER PHARMA AKTIENGESELLSCHAFT, priority 2012, dated 2017).

How the values were obtained:
[1] = biological target: BRD4(1) (amino acids 44-168) (Homo sapiens (Human), UniProt O60885); assay: BRD4 binding strength, TR-FRET (HTRF) assay of BRD4(1) / acetylated histone H4 peptide interaction; conditions: inhibition of BRD4(1)/Ac-H4 peptide interaction
[2] = test system: MOLM-13 cells; assay: Cell proliferation (alamarBlue), MOLM-13; assay type: cell-based; conditions: Homo sapiens, acute myeloid leukaemia cell line, 96 hours incubation
How it was run: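 Cells seeded at 4000/well, fluorescence read after overnight at 37° C, then compound-treated for 96 h (MOLM-13, MDA-MB-231), 120 h (MOLP-8) or 168 h (LAPC-4). AlamarBlue fluorescence at start subtracted from end value and compared with buffer-treated cells.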

[3] = test system: LAPC-4 cells; assay: Cell proliferation (alamarBlue), LAPC-4; assay type: cell-based; conditions: Homo sapiens, LAPC4; prostate carcinoma (androgen receptor-positive) cell line, 168 hours incubation
[4] = test system: B16F10 cells; assay: Cell proliferation (alamarBlue), B16F10; assay type: cell-based; conditions: Mus musculus, B16-F10; melanoma cell line, 96 hours incubation
How it was run: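 Mouse B16F10 cells were plated at 400 cells/well in 100 μl of growth medium in 96-well microtitre plates and incubated overnight at 37° C. Initial fluorescence (CI) was then read with alamarBlue® reagent. Cells were exposed to serial compound dilutions for 96 hours at 37° C before final fluorescence (CO) was read. CI was subtracted from CO and compared with buffer-treated controls.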

[5] = test system: MOLP-8 cells; assay: Cell proliferation (alamarBlue), MOLP-8; assay type: cell-based; conditions: Homo sapiens, multiple myeloma cell line, 120 hours incubation
[6] = test system: MDA-MB-231 cells; assay: Cell proliferation (alamarBlue), MDA-MB-231; assay type: cell-based; conditions: Homo sapiens, mammary carcinoma cell line, 96 hours incubation
Description: The ability of the compounds according to the invention to inhibit the proliferation of various cell lines was determined.
Cell viability was determined by means of the alamarBlue® reagent (Invitrogen). The cells were sown at different densities (MOLM-13, LAPC-4, MOLP-8 and MDA-MB-231: 4000 cells/well; B16F10: 400 cells/well) in 100 μl of growth medium on 96-well microtitre plates. After overnight incubation at 37° C., the fluorescence values (CI values) were determined. The plates were then treated with various substance dilutions and incubated at 37° C. for 96 hours (MOLM-13, MDA-MB-231 and B16F10 cells), 120 hours (MOLP-8 cells) or 168 hours (LAPC-4 cells). Subsequently, the fluorescence values were determined (CO values). For the data analysis, the CI values were subtracted from the CO values and the results were compared between cells which had been treated with various dilutions of the substance or only with buffer solution.
The compounds according to the invention were tested in the cell lines in Table 2, which represent the indications specified by way of example:
The indications corresponding to the different cell lines can be found in Table 2.

IC50 [1] [nM]	IC50 [2] [nM]	IC50 [4] [nM]	IC50 [6] [nM]	SMILES	IC50 [3] [nM]	IC50 [5] [nM]
1800	2960	2120	4730	Cc1nnc2n1-c1ccccc1C(c1ccc(Cl)cc1)=C[C@H]2CC(=O)N1CCC2(CCCC2)CC1 [Example 29, (−)-1-(8-azaspiro[4.5]dec-8-yl)-2-[(4R)-6-(4-chlorophenyl)-1-methyl-4H-[1,2,4]triazolo[4,3-a][1]benzazepin-4-yl]ethanone]	670	1670
30	160	150	210	Cc1noc(C[C@H]2C=C(c3ccc(Cl)cc3)c3ccccc3-n3c(C)nnc32)n1 [Example 35, (−)-6-[(4R)-4-chlorophenyl]-1-methyl-4-[(3-methyl-1,2,4-oxadiazol-5-yl)methyl]-4H-[1,2,4]triazolo[4,3-a][1]benzazepine]	80	130
